Data on seven compounds can be found in patent US20160310463A1, “LIQUID STATIN FORMULATION” (priority 2009, published 2016).

Counter-ions that a name gives are not always drawn. Like-named read-outs stand apart in the source and are kept apart here.

The test system of series [1] is testicular endocrine function. As to conditions: dogs, very high doses; cited from earlier work.
For series [2] the following is noted: adults; estimate for the five statins together; cited from earlier work.
The subject of series [3] is adrenal and gonadal steroidogenesis. As to conditions: humans, up to 80 mg/day, basal conditions; cited from earlier work.
A further series concerns children and adolescents. The conditions noted are these: cited from earlier work.
A further series concerns pediatric HeFH patients. The conditions noted are these: cited from earlier work.
Series [4] concerns children with HeFH. The conditions noted are these: cited from earlier work.
Series [5] concerns children with HeFH. Briefly: Dirisamer et al.: low-dose simvastatin in children with HeFH. The series is classed as in vivo, human. As to the method: If the range of LDL-C of 150-170 mg/dl was not reached within the first 8 weeks, the daily dosage was increased stepwise up to 20 mg. The cut-off level for LDL-C<170 mg/dl (range 150-170 mg/dl) was determined according to the high mean concentrations of LDL-C of the study population.

For series [6], the system named is children younger than 17 years of age with hyperlipidemia. As to conditions: mean dosage 16 mg once daily, cited from earlier work.
Series [7] in a line: Simvastatin solubility screening, visual observation. The series is classed as physicochemical. As to conditions: for Visual Appearance: 23° C. As to the method: The study was performed by visual observation of the samples at various time points followed by chemical testing of the centrifuged supernatant. Ten vehicles chosen for the solubility screen are referenced in Table 2 below. One (1 g) of each vehicle was dispensed into an Eppendorf tube. […] Samples not visually soluble, after about 21 hours, were heated to 60° C. while being mixed for 1 hour. Samples were allowed to reach room temperature, and visual observations were recorded. All samples were centrifuged for 10 minutes at 10,000 RPM.

For series [8] the following is noted: cited from earlier work.
For series [9], the system named is HeFH children and adolescents. As to conditions: 5 mg and 10 mg pravastatin; cited from earlier work.
Series [10] has as its system adrenocortical and testicular steroidogenesis. The conditions noted are these: males age 18-50 years, long-term therapy, cited from earlier work.
For series [11] the following is noted: pH of 7.0; cited from earlier work.

For `CC[C@H](C)C(=O)O[C@H]1C[C@@H](C)C=C2C=C[C@H](C)[C@H](CC[C@@H]3C[C@@H](O)CC(=O)O3)[C@H]21` [Lovastatin, (1S,3R,7S,8S,8aR)-8-{2-[(2R,4R)-4-hydroxy-6-oxooxan-2-yl]ethyl}-3,7-dimethyl-1,2,3,7,8,8a-hexahydronaphthalen-1-yl (2S)-2-methylbutanoate], the “effect on testicular endocrine function” value in series [1] is listed as “reduction in testicular endocrine function”. Besides, the occurrence of rhabdomyolysis in [2] is reported as 3 per 100 000 person-years. In addition, in [3], the “effect on adrenal and gonadal steroidogenesis” value is listed as “no effect”. The LDL-C reduction is 21% in the series on children and adolescents (10 mg lovastatin); 24% in the series on children and adolescents (20 mg lovastatin). Besides, in the series with children and adolescents (in vivo), the “share of the mean LDL-C reduction of the highest dose of 40 reached by the lowest dose (10 mg/day)” value is on record as “more than 50%”.

With `CCC(C)(C)C(=O)O[C@@H]1C[C@H](C)C=C2C=C[C@@H](C)[C@@H](CC[C@@H]3C[C@H](O)CC(=O)O3)[C@@H]21` (relative stereo) [Simvastatin, butanoic acid, 2,2-dimethyl-,1,2,3,7,8,8a-hexahydro-3,7-dimethyl-8-[2-(tetrahydro-4-hydroxy-6-oxo-2H-pyran-2-yl)-ethyl]-1-naphthalenyl ester, [1S-[1α,3α,7β,8β(2S*,4S*),-8aβ]]], the “change in total-C, LDL-C and ApoB compared with placebo” value in the series on pediatric HeFH patients (at 24 weeks) is recorded as “significant (P<0.001) reductions”. Further, in the series on pediatric HeFH patients (only significant relative to placebo at week 24 (P<0.05)), the “change in HDL-C and ApoA1” value was “increased for all weeks”. Further, in the series on pediatric HeFH patients (simvastatin 40 mg), the “results from the extension at 48 weeks” value was “comparable to those observed in the base study”. In addition, the change in triglycerides result in the series on pediatric HeFH patients (weeks 8, 16, and 48) is on record as “Significant reductions”. In addition, the “patients reaching the recommended therapeutic level (LDL-C<170 mg/dl) within the first period” value in the series with children with HeFH [4] (5 mg simvastatin daily, nine patients started with 5 mg) is “four”. The “percentage decrease in LDL-C concentration” value in the series with children with HeFH [4] (5 mg simvastatin period) was 25%; in the series with children with HeFH [4] (10 mg simvastatin period), 30%; in the series with children with HeFH [4] (20 mg simvastatin period), 36%. Also, the “percentage decrease in total cholesterol” value with children with HeFH [4] (5 mg simvastatin period) was 19%; in the series on children with HeFH [4] (10 mg simvastatin period), 26%; in the series on children with HeFH [4] (20 mg simvastatin period), 29%. The “patients reaching the recommended therapeutic level within the first period” value with children with HeFH [4] (10 mg simvastatin daily, 11 patients started with 10 mg) is “Six”. Moreover, in the series with children with HeFH [4] (5, 10 and 20 mg dosage periods), the “side effects that could be related to simvastatin” value is “few and equally distributed among the three dosage periods”. Moreover, the “subjects with abnormal levels of routine safety parameters (CK, ALAT, GGT)” value in the series on children with HeFH [4] (group of 20 girls and boys) is given as “three”. For the same compound, in the series on children with HeFH [5] (5 mg and 10 mg simvastatin period), the “higher LDL-C reduction compared with other statins tested in young HeFH patients” value is on record as about 10%. For the same compound, in the series with children with HeFH [5] (in vivo), the “share of the mean LDL-C reduction of the highest dose (20 mg/day) reached by the lowest dose (5 mg/day)” value is given as “more than 70%”. In addition, the “fall of circulating LDL-C at week 104” value is on record as 15-20% in [6] (in 1 patient), 40-60% in series [6] (in 7 patients) and 20-40% in series [6] (in 8 patients). The “Visual Appearance” value in [7] (2.5 mg in 1 g 5% SLS in Water, 30 Min to ~21 Hrs) is listed as “Clear colorless liquid w/ air bubbles”; in series [7] (2.5 mg in 1 g Captex 500 P, 30 Min to ~21 Hrs), “Clear colorless liquid”; in series [7] (2.5 mg in 1 g E. Pure Water, 30 Min to ~21 Hrs), “Cloudy liquid w/ white powder”; in series [7] (2.5 mg in 1 g Glycerine, Initial to ~21 Hrs), “Stiff clear, colorless liquid w/ white powder”; in series [7] (2.5 mg in 1 g Labrafil M 2125 CS, merged cell, Initial to about 2 Hrs), “Yellow liquid w/ white powder”; in series [7] (2.5 mg in 1 g Labrasol, 30 Min to ~21 Hrs), “Pale yellow liquid”. Moreover, the “Visual Appearance” value is given as “Clear colorless liquid” in series [7] (2.5 mg in 1 g PEG 400, 30 Min to ~21 Hrs); “Yellow liquid w/ white powder” in series [7] (2.5 mg in 1 g Polysorbate 80, Initial to ~21 Hrs); “Clear colorless liquid” in series [7] (2.5 mg in 1 g Propylene Glycol, 30 Min to ~21 Hrs). For the same compound, the “Visual Appearance after Application of Heat (60° C.) for 1 Hour and Cooled to Room Temperature” value in series [7] (2.5 mg in 1 g E. Pure Water) is “Hazy liquid w/ white powder and air bubbles”; in series [7] (2.5 mg in 1 g Glycerine), “Slightly hazy liquid w/ some white powder”; in [7] (2.5 mg in 1 g Polysorbate 80) it was “Clear yellow liquid w/ some white residue”.

`COCc1c(C(C)C)nc(C(C)C)c(/C=C/[C@@H](O)C[C@@H](O)CC(=O)O)c1-c1ccc(F)cc1` [Cerivastatin sodium]: the solubility result in series [8] (in acetone) is reported as “very slightly soluble”; in [8] (in water, methanol, and ethanol), “soluble”.

For “[R.,S.-(E)]-(±)-7-[3-(4-fluorophenyl)-1-(1-methylethyl)-1H-indol-2-yl]-3,5-dihydroxy-6-heptenoic acid, monosodium salt [Fluvastatin]”, the occurrence of rhabdomyolysis in [2] is on record as 3 per 100 000 person-years.

Regarding `CC[C@H](C)C(=O)O[C@H]1C[C@H](O)C=C2C=C[C@H](C)[C@H](CC[C@@H](O)C[C@@H](O)CC(=O)O)[C@H]21` [Pravastatin, (bR,dR,1S,2S,6S,8S,8aR)-1,2,6,7,8,8a-Hexahydro-b,d,6-trihydroxy-2-methyl-8-[(2S)-2-methyl-1-oxobutoxy]-1-naphthaleneheptanoic acid monosodium salt], the occurrence of rhabdomyolysis in series [2] was 3 per 100 000 person-years. In series [9], the “average decrease in LDL-C concentration” value was 23%. Moreover, the “interference with adrenal and testicular steroidogenesis” value in series [10] (maximum stimulation) is recorded as “did not interfere”. In addition, the serum testosterone levels entry in series [10] is recorded as “remained unchanged”.

As for `CC(C)c1nc(N(C)S(C)(=O)=O)nc(-c2ccc(F)cc2)c1/C=C/C(O)C[C@@H](O)CC(=O)O` (stereo in doubt) [Rosuvastatin calcium, bis[(E)-7-[4-(4-fluorophenyl)-6-isopropyl-2-[methyl(methylsulfonyl)amino]pyrimidin-5-yl](3R,5S)-3,5-dihydroxyhept-6-enoic acid] calcium salt], the solubility entry in series [8] (in ethanol) was “slightly soluble”; in series [8] (in water and methanol), “sparingly soluble”. Further, the “partition coefficient (octanol/water)” value in series [11] is listed as 0.13.

Take `CC(C)c1c(C(=O)Nc2ccccc2)c(-c2ccccc2)c(-c2ccc(F)cc2)n1CC[C@@H](O)C[C@@H](O)CC(=O)O` [Atorvastatin, (3R, 5R)-7-[2-(4-fluorophenyl)-3-phenyl-4-(phenylcarbamoyl)-5-(propan-2-yl)-1H-pyrrol-1-yl]-3,5-dihydroxyheptanoic acid]: in series [2], the occurrence of rhabdomyolysis is listed as 3 per 100 000 person-years.
